Test results: patent EP0778266A1, “5-Amino-6-cyclohexyl-4-hydroxy-hexanamide derivatives as inhibitors of beta-amyloid protein production” (BRISTOL-MYERS SQUIBB COMPANY, priority 1995, dated 1997)

Tested on: γ-Secretase
Experiment: Cell-based ELISA assay of β-AP production by transfected H4 cells expressing β-APP (Swedish variant); reported as inhibition of γ-secretase
Details: β-AP in conditioned medium of transfected H4 (human neuroglioma) cells by ELISA, approximately 16 hours incubation, dose response
From the text: Production and detection of β-AP made by cells in culture. The use of transfected H4 (human neuroglioma) cells stably expressing constructs containing wild-type and mutant forms of β-APP have been used to identify inhibitors of β-AP production. The Swedish variant of β-APP produces 5-7 fold more β-AP than the wild type and is typically used due to its enhanced signal. […] The capture antibody is typically a mouse monoclonal (lgG1/kβ-APPa). The antibody recognizes the carboxyl terminal epitope of β-AP. The specificity of the capture antibody ensures measurement of β-AP without interference by other secreted β-APP fragments that share amino acid sequence (β-AP1-16) with β-AP. […] In the cell-based assay conditioned medium from H4 cells is tested by ELISA for the quantity of β-AP present. […]
A typical ELISA-based assay requires plating of the transfected cells at a density sufficient for the rapid detection of the secreted β-AP (experimentally predetermined for a particular stable cell population) in a 96-well format. […] Incubation of the cells with the test agent will continue for approximately 16 hours at which time equal aliquots of media from each sample well is removed and placed into a previously prepared ELISA plate for β-AP quantitation. The ELISA is carried out in a manner described by others (Haass, et al., 1992; Hawlow and Lane, 1988) and the β-AP signal quantitated. […]

[αS-(αR*, γR*, δR*)] N-(2,2-dimethylpropyl)-γ-hydroxy-α-(1-methylethyl)-δ-[(4-methylpentyl)amino]cyclohexanehexanamide hydrochloride. [Example 31]
Activity Rating: +++ (+++ ⇐ 10)
